Assay results taken from patent US20240293443A1, “HEPARAN SULFATE MIMETICS TO IMPROVE GLUCOSE CLEARANCE” (The Regents of the University of California, priority 2021, published 2024).
“Also recorded” adds a separate entry of the source.

Experiments:
[1] = test system: Ndst1−/− adipocytes; experiment: 3[H]-2-deoxy-glucose uptake in Ndst1−/− MEF-derived adipocytes; assay type: cell-based, mouse; settings: for glucose clearance in differentiated adipocytes: Ndst1−/−, Wnt inhibitor treatment during the first 3 days of adipogenesis
Description: Cells were seeded on a 24-well plate at a density of 30,000 cells/cm^2. Cells were allowed to grow to confluence for 48 hours. At this point (Day 0), the media were removed, cells were washed with PBS, and differentiation media with or without heparin (100 μg/ml) were added. […] On Day 3 of differentiation, cells were washed with PBS and treated with insulin media, which consisted of 2 μM insulin, and 1 μM rosiglitazone in DMEM with 10% FBS. The cellular cholesterol and triglyceride content was determined after lysing cells in 0.1M NaOH. Total plasma cholesterol and plasma triglyceride levels (Sekisui Diagnostics) and protein levels (BCA protein assay) were determined using commercially available kits. Cells are washed twice with PBS and placed into DMEM with 2 mg/mL BSA for two hours. […] The insulin solution is then removed and the cells are washed twice with transport solution before radioactive transport solution is added, which consists of 0.25 μCi/well of 3[H]-2-deoxy-glucose and 0.025 mM 2-deoxy-glucose. After a 10-minute incubation in the radioactive transport solution, it is removed and the, the glucose uptake is halted by addition of ice cold PBS. The cold PBS is removed and each well is washed twice with PBS. Then, lysis buffer consisting of 0.1 M NaOH and 0.1% w/v sodium dodecyl sulfate, is added to each well. The radioactive lysate was transferred to a scintillation vial containing 5 mL of Ultima Gold liquid scintillation fluid and analyzed using a liquid Scintillation counter. Cells were differentiated for 6 days using the standard adipogenic differentiation protocol described above. Each day on Days 0-3, the cells were washed with PBS and incubated with 200 μL solution of DMEM containing GPs at the indicated concentrations added for 1 hour at 37° C. After this time, the media were removed, the cells were washed with PBS, and fresh differentiation media were added. On Day 6, the adipocytes were subjected to the ^3[H]-2-deoxy-glucose uptake assay and the spent media were analyzed for glucose and lactate content as described above.

[2] = test system: WT adipocytes; experiment: 3[H]-2-deoxy-glucose uptake in WT MEF-derived adipocytes; assay type: cell-based, mouse; settings: for glucose clearance in differentiated adipocytes: WT, Wnt inhibitor treatment during the first 3 days of adipogenesis
Description: Cells were seeded on a 24-well plate at a density of 30,000 cells/cm^2. Cells were allowed to grow to confluence for 48 hours. At this point (Day 0), the media were removed, cells were washed with PBS, and differentiation media with or without heparin (100 μg/ml) were added. […] On Day 3 of differentiation, cells were washed with PBS and treated with insulin media, which consisted of 2 μM insulin, and 1 μM rosiglitazone in DMEM with 10% FBS. The cellular cholesterol and triglyceride content was determined after lysing cells in 0.1M NaOH. Total plasma cholesterol and plasma triglyceride levels (Sekisui Diagnostics) and protein levels (BCA protein assay) were determined using commercially available kits.
Cells are washed twice with PBS and placed into DMEM with 2 mg/mL BSA for two hours. […] The insulin solution is then removed and the cells are washed twice with transport solution before radioactive transport solution is added, which consists of 0.25 μCi/well of 3[H]-2-deoxy-glucose and 0.025 mM 2-deoxy-glucose. After a 10-minute incubation in the radioactive transport solution, it is removed and the, the glucose uptake is halted by addition of ice cold PBS. The cold PBS is removed and each well is washed twice with PBS. Then, lysis buffer consisting of 0.1 M NaOH and 0.1% w/v sodium dodecyl sulfate, is added to each well. The radioactive lysate was transferred to a scintillation vial containing 5 mL of Ultima Gold liquid scintillation fluid and analyzed using a liquid Scintillation counter.
Cells were differentiated for 6 days using the standard adipogenic differentiation protocol described above. Each day on Days 0-3, the cells were washed with PBS and incubated with 200 μL solution of DMEM containing GPs at the indicated concentrations added for 1 hour at 37° C. After this time, the media were removed, the cells were washed with PBS, and fresh differentiation media were added. On Day 6, the adipocytes were subjected to the ^3[H]-2-deoxy-glucose uptake assay and the spent media were analyzed for glucose and lactate content as described above.

[3] = target: T1, lipoprotein lipase (LPL) (Bos taurus, UniProt P11151); experiment: Lipoprotein lipase (LPL) binding to adipocytes; assay type: cell-based, Bovine; settings: exogenous heparin 100 μg/ml
T1 construct: gift of Gunilla Olivecrona, Umea University
T1 sequence (P11151 29-478): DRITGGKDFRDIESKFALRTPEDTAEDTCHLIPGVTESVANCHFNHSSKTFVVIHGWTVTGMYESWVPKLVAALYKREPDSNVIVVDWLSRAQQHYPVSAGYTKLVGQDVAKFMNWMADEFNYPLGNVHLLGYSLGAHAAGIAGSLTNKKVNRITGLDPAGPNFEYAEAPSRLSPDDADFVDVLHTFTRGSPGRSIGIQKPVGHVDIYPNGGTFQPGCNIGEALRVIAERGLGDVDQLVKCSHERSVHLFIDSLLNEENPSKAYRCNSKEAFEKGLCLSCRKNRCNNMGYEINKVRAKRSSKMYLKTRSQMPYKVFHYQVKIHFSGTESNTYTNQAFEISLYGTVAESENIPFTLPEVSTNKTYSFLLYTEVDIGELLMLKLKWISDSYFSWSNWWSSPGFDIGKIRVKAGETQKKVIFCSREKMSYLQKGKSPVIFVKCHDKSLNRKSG
Description: Bovine LPL generously provided by Gunilla Olivecrona (Department of Biomedical Sciences, Umea University, Umea Sweden)^42. Enzyme activity was determined using ^3H radiolabeled substrate as previously described^43. Molar ratio of biotin to LPL was determined in a HABA displacement assay (Pierce Biotin Quantitation Kit).
LPL binding assays were performed similar to as previously described. Cells were harvested using Accutase cell detachment solution (Millipore) and washed twice with PBS. Cells were incubated for 15 min at 37° C. in serum free media in the absence or presence of 5 mU/ml each of recombinant heparin lyases 1, 11, and 111. Treated and untreated cells were washed twice with PBS, chilled on ice for 20 min and incubated with 50 nM biotinylated LPL in 1% BSA supplemented PBS at 4° C. for 1 hour. Following the incubation, cells were washed twice in ice-cold PBS and incubated with 0.4 μg/mL Phycoerythrin-Cy5 conjugated Streptavidin in 1% BSA supplemented PBS at 4° C. A set of cells was exposed only to Phycoerythrin-Cy5 conjugated Streptavidin and was used as background control. Cells were washed twice with PBS and analyzed by flow cytometry.

[4] = test system: WT adipocytes; experiment: Glucose and lactate in spent media (YSI), adipocytes differentiated with heparin; assay type: cell-based, mouse; settings: heparin 100 μg/ml during differentiation; spent media day 6
Description: Cells were seeded on a 24-well plate at a density of 30,000 cells/cm^2. Cells were allowed to grow to confluence for 48 hours. At this point (Day 0), the media were removed, cells were washed with PBS, and differentiation media with or without heparin (100 μg/ml) were added. Differentiation media consisted of 0.1 μM dexamethasone, 450 μM 3-isobutyl-1-methylxanthine, 2 μM insulin, and 1 μM rosiglitazone in DMEM supplemented with 10% FBS. On Day 3 of differentiation, cells were washed with PBS and treated with insulin media, which consisted of 2 μM insulin, and 1 μM rosiglitazone in DMEM with 10% FBS. The cellular cholesterol and triglyceride content was determined after lysing cells in 0.1M NaOH. Total plasma cholesterol and plasma triglyceride levels (Sekisui Diagnostics) and protein levels (BCA protein assay) were determined using commercially available kits.
MEFs are differentiated to day 6 into adipocytes in a 24 well plate, and on day six (6) 500 μL of media is collected from each well in an Eppendorf tube and immediately frozen in liquid nitrogen. […] Then, the filtrate is analyzed using a YSl 2900, where the sample is loaded into two wells of a 96 well plate, 200 μL media per well. The samples are then analyzed for lactate and glucose concentration.

[5] = test system: WT adipocytes; experiment: [9,10-3H(N)]-Palmitate (FFA) uptake in adipocytes; assay type: cell-based, mouse; settings: chemical inhibition of HS (heparin 100 μg/ml)
[6] = test system: Primary adipocytes derived from murine subcutaneous white adipose tissue (sWAT) stromal vascular cells; experiment: Glucose uptake in primary adipocytes from sWAT stromal vascular cells; assay type: cell-based; settings: co-incubated with heparin during adipogenesis
Description: Around 1 g subcutaneous WAT from 8- to 14-week-old, male or female mice was dissected, washed, minced, and digested in 1 ml DMEM containing 0.25 U/ml collagenase D (Sigma) at 37° C. with constant agitation at 200 rpm for 25-35 min. To stop the digestion, complete DMEM including 10% FBS and 1% P/S was added to the digestion mixture. Then the cells were filtered through a 100 μm cell strainer. After centrifugation at 200×g for 10 min, the floating adipocyte fraction (AF) was collected for protein isolation, while the pellet containing stromal vascular fraction (SVF) was resuspended in fresh complete medium and seeded on a 10-cm cell culture dish. At a confluency of ˜80%, cells were seeded on 6- and 12-well plates and grown to confluency for differentiation. Differentiation was induced by using complete DMEM/F12 media supplemented with 1 μM dexamethasone, 0.5 mM isobutylmethylxanthine (IBMX), 5 μg/ml insulin, and 1 μM rosiglitazone. Three days after induction, medium was changed to complete DMEM/F12 supplemented with 5 μg/ml insulin for two days, afterwards cells were maintained in complete DMEM/F12 medium. […]
Cells are washed twice with PBS and placed into DMEM with 2 mg/mL BSA for two hours. […] The radioactive lysate was transferred to a scintillation vial containing 5 mL of Ultima Gold liquid scintillation fluid and analyzed using a liquid Scintillation counter.

[7] = target: Wnt10b (Homo sapiens, UniProt O00744); experiment: Wnt binding to HS-mimetics via ELISA (Wnt10b); settings: immobilized Wnt10b, biotinylated glycopolymer or heparin
Sequence of Wnt10b (O00744 29-389, species assumed): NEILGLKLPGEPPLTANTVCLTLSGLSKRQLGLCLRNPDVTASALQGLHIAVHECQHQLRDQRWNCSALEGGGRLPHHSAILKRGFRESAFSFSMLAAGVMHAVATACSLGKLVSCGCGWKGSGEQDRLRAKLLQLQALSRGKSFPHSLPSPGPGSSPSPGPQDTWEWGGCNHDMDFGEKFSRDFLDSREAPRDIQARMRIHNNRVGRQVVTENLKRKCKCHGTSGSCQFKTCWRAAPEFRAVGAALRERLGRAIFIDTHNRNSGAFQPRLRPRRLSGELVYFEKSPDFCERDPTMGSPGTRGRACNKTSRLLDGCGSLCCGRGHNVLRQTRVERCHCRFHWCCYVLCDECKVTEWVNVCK
Description: (§1) Wnt5a and Wnt10b proteins (10 nM solution in 1% (w/v) BSA/DPBS) were immobilized on 96-well tissue culture treated plates overnight at 4° C. The plates were washed twice with 0.05% (v/v) Tween-20 in DPBS and blocked with 1% (w/v) BSA/DPBS for 6 hours at room temperature. Biotinylated HS-mimetic glycopolymers GP or heparin were added to the wells at increasing concentrations in 1% (w/v) BSA/DPBS. After 1 hour incubation, the wells were washed three times with 0.05% Tween-20 in DPBS. Streptavidin-HRP (1:1000 in 1% BSA/DPBS) was added for 45 min at ambient temperature. The wells were again washed three times in 0.05% Tween-20 in DPBS, followed by treatment with 100 μL of TMB substrate for 2-5 min before quenching with 100 μL of 2N sulfuric acid. Absorbance (450 nm) was measured using a Molecular Devices SpectraMax plate reader.

[8] = target: T2, Wnt5a (Homo sapiens, UniProt P41221); experiment: Wnt binding to HS-mimetics via ELISA (Wnt5a); settings: immobilized Wnt5a, biotinylated glycopolymer or heparin
T2 sequence (P41221 62-380): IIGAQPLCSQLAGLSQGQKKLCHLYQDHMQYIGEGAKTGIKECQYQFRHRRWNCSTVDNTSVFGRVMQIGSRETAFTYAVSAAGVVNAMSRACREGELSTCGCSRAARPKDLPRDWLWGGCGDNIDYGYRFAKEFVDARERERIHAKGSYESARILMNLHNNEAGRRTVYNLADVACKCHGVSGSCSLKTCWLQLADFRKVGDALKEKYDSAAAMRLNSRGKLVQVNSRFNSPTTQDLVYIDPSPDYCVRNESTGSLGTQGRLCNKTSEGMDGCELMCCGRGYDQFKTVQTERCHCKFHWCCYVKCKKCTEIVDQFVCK
Description: as §1

| Compound | glucose clearance in differentiated adipocytes [1] | toxicity to WT adipocytes ([2]; 10 nM) | glucose clearance in differentiated adipocytes [2] | binding of lipoprotein lipase (LPL) [3] | glucose levels in the culture medium [4] | lactate production [4] | FFA uptake [5] | 3[H]-2-deoxy-glucose uptake ([1]; Ndst1−/− MEFs treated 1 hour at 37° C. on day 0 to 3, differentiated adipocytes day 6) | effect of exogenous heparin on glucose uptake ([1]; Ndst1−/− cells treated with exogenous heparin) | glucose uptake [6] | reduction of glucose uptake ([2]; WT cells treated with exogenous heparin (100 μg/ml) during differentiation, basal) | differential in glucose uptake versus WT after insulin stimulation ([2]; WT cells with heparin, insulin stimulated) | glucose uptake at day 6 ([2]; heparin 100 μg/ml from start, cells treated up to day 3 and beyond) | glucose uptake, acute treatment of mature adipocytes ([2]; heparin 100 μg/ml simultaneously with 3[H]-2-deoxy-glucose administration, WT and Ndst1−/−) | glucose uptake at day 6 ([2]; heparin added after day 4 of differentiation) | glucose uptake potential relative to untreated WT adipocytes ([2]; soluble heparin 100 μg/ml) | EC50 [7] | EC50 [8] |
| --- | --- | --- | --- | --- | --- | --- | --- | --- | --- | --- | --- | --- | --- | --- | --- | --- | --- | --- |
| Cc1cc(-c2ccc(CC(=O)Nc3ccc(-c4cccnc4)cc3)cc2)ccn1 [Wnt-C59] | enhanced glucose clearance capacity | toxic | no effect on cellular glucose clearance | – | – | – | – | – | – | – | – | – | – | – | – | – | – | – |
| Oc1nc(-c2ccc(C(F)(F)F)cc2)nc2c1CSCC2 [XAV-939] | enhanced glucose clearance | – | enhanced glucose clearance | – | – | – | – | – | – | – | – | – | – | – | – | – | – | – |
| heparin | – | – | – | reduced binding | high glucose levels remaining | decreased lactate production | did not negatively affect FFA uptake | had no effect; also recorded: no effect on cellular glucose uptake | did not have an additive effect on glucose uptake | reduced glucose uptake | 45% | −44% | significantly reduced glucose uptake | unaltered glucose uptake | can no longer impact glucose uptake | reduces glucose uptake potential | 0.0301 µM | 0.0282 µM |
